Test results: patent US7332480B2, “Compositions for the regulation of cytokine activity” (Yeda Research and Development Co. Ltd., priority 1992, dated 2008)

Tests used:
[1] = tested on: adjuvant arthritis; assay: Adjuvant arthritis (AA) in rats; format: in vivo, Lewis rats
[2] = tested on: mortality after irradiation; assay: Radioprotective effects in gamma-irradiated mice; format: in vivo, BALB/c mice; conditions: 750 rads; three administrations; 300 ng H-9392, 1 μg glucosamine
Protocol: Groups of female BALB/c mice, 8 weeks old, 5-10 mice per group, were injected subcutaneously with either saline (0.1 ml, control), H-9392 (30 ng/mouse), or glucosamine (10,000 ng/mouse) 1 day before irradiation, and weekly thereafter until termination of the experiment on day 30. All the mice were irradiated to a dose of 700 rads using a ^60Co gamma radiation source.
The mortality within the different groups of mice was then scored over a 30 day period. […] The group of mice which had been injected with glucosamine also fared better than the control group, showing a 20% mortality rate in the same period.
In a separate experiment, groups of BALB/c mice (5 mice to a group) were likewise exposed to 750 rads of gamma-rays, except that these groups of mice were treated with test substances (saline at 0.1 ml per mouse; H-9392 at 0.3, 3, 30 and 300 ng/mouse; and glucosamine at 1, 10 and 100 μg/mouse) on the day before irradiation, on the sixth day after irradiation, and once again on the thirteenth day after irradiation only. All treatment ceased after the third and last administration.

[3] = tested on: IDDM of NOD mice; assay: Insulin dependent diabetes mellitus (IDDM) of NOD mice; format: in vivo; conditions: H-9392 30 ng, glucosamine 10,000 ng; all the control mice had died (FIG. 41A)
[4] = tested on: experimental DTH reaction in mice; assay: In vivo bioassay of inhibition of experimental DTH reactivity (oxazolone, ear swelling); design: key to effect on DTH (printed in the Dose column): “N.E.” indicates that no effect was observed at the tested dosage range of 0.000004-4 μg/gm mouse; conditions: for DTH / effective dose range for inhibition ≧50% of control: CD1 mice; for effect on DTH (printed in the Dose column): tested dosage range of 0.000004-4 μg/gm mouse s.c.; for effective dose range for inhibition ≧50% of control: Table XXIIIC footnotes, DTH
Protocol: Groups of inbred BALB/c (Jackson Laboratories, Bar Harbor, Me.) or of outbred CD1 (Weizmann Institute Animal Breeding Center, Rehovot, Israel) mice are sensitized on the shaved abdominal skin with 100 μl of 2% oxazolone (OX) in acetone/olive oil (4/1, v/v) applied topically. DTH sensitivity is elicited 5 days later as follows: mice are challenged with 20 μl of 0.5% OX (10 μl administered topically to each side of the ear) in acetone/olive oil. A constant area of the ear is measured immediately before challenge and 24 and 48 h later with a Mitutoyo engineer's micrometer. The individual measuring ear swelling is blinded to the identity of the groups of mice. The increment (Δ) of ear swelling is expressed as the mean in units of 10^−2 mm or 10^−4 inch (+SE) depending on the micrometer that is used. Percent inhibition is calculated as follows: […]
Mice are treated with LMWH again Example 5.1, injected the day before primary sensitization to OX. On the fifth day after sensitization to OX, the 10 mice are challenged to induce a DTH reaction, as described above.
The positive control is the DTH reaction elicited in immunized mice in the absence of treatment with LMWH. The negative control is the background swelling produced by the antigen in naive (non-immunized) mice. […]
BALB/c mice (at least 5 mice per group) were sensitized on the shaved abdomen with 3% 4-ethoxymethylene-2-phenyl oxazolone (OX; BDH-Chemicals, GB) in acetone/olive oil applied topically. DTH sensitivity was elicited 5 days later as follows. Mice were challenged with 0.5% OX in acetone/olive oil. The ear was measured immediately before challenge and 24 h later with Mitutoyo engineer's micrometer (Japan). The individual measuring the swelling of the ear was blinded to the identity of the groups of mice. To interfere with DTH response, the low molecular weight immuno-regulatory fractions, diluted in PBS, were administrated subcutaneously into the back of the treated mice at the indicated time schedules and concentrations. Treated mice were inspected during and after (>2 months) the treatment and no major side-effects were observed clinically.
In particular, CD1 mice (available from the Weizmann Institute Animal Breeding Center, Rehovot, Israel), 4-12 mice per group were treated as described in Section 5.2 or 6.8.

[5] = tested on: secretion of active TNF-α by activated human CD4+ T cells; assay: Bioassay of TNF-α activity using human CD4+ T cells derived from PBLs (human PBL bioassay); format: cell-based; conditions: for Bioassay of TNF Activity: Table XXIII, conc range of 1 μg/ml-0.01 pg/ml, inconsistent = same result not obtained for all three bioassays; for “R” value: no effect, zero assigned
Source text: Non adherent cells were eluted and washed.
Nophar, Y. et al. J. Immunol. (1988) 140 (10):3456-3460.

[6] = tested on: LPS-induced inflammation of the cornea; assay: LPS-induced inflammation of the rat cornea; format: in vivo, Lewis rats
Protocol: LPS-induced inflammation of the cornea is TNF dependent, as shown by the work of Vanderhagen, C. and co-workers in the Netherlands, “Kinetics of Intraocular TNF and IL-6 in Endotoxin-Induced Uveitis in the Rat,” submitted for publication. Using a 30-gauge needle, LPS (5 ng) was injected into the cornea of Lewis rats. After one day, separate groups of rats, 2 to a group (or 4 eyes to a group) were then injected subcutaneously with phosphate-buffered saline (0.05 ml) or H-1020 (at a dose of either 50 ng/rat or 200 ng/rat). The effects, if any, were scored as follows:
in which the sum of the points is used as the total score.

[7] = Table XXIIIA, no effect, zero assigned

## C[C@@H]1C[C@H]2[C@@H]3CCC4=CC(=O)C=C[C@]4(C)[C@@]3(F)[C@@H](O)C[C@]2(C)[C@@]1(O)C(=O)COP(=O)(O)O [dexamethasone phosphate, reference compound]
[1]; treatment from day 12, dexamethasone phosphate daily or weekly, disaccharide weekly
  course of AA after treatment was ended: suffered a relapse
[1]; weekly s.c. from day 12, dexamethasone phosphate 100 μg or disaccharide 120 ng per rat (FIG. 38G)
  severity of the AA score at 30 days post-induction: only a moderate reduction in the severity of the AA score

## N[C@@H](C=O)[C@@H](O)[C@H](O)[C@H](O)CO [GlcN, 2-amino-2-deoxy-D-glucose, reference compound]
[2]
  activity in suppressing mortality after irradiation: moderate activity
[3]
  mice died by age 5 months: about half
[4]; Table XXIIIC, 0.000012 μg/gm s.c., control 19.7 ± 1.2
  DTH: 5 ± 0.7 10^−2 mm
[4]; Table XXIIIC, 0.4 μg/gm s.c., control 19.7 ± 1.2
  DTH: 2.3 ± 0.9 10^−2 mm

## N[C@H]1C(O)O[C@H](CO)[C@H](O)[C@@H]1O (stereo partly drawn) [GalN, D-Galactosamine, reference compound]
[1]; different dosages, s.c. weekly (FIG. 38C)
  effect on AA: inhibitory effects but to a much lesser degree
[4]; Table XXIIIC, 0.00004 μg/gm s.c., control 18.9 ± 0.7
  DTH: 8.9 ± 0.6 10^−2 mm
[4]; Table XXIIIC, 0.12 μg/gm s.c., control 18.9 ± 0.7
  DTH: 6.5 ± 0.7 10^−2 mm

## CC(=O)N[C@H]1C(O)O[C@H](CO)[C@@H](O)[C@@H]1O (stereo partly shown) [NAc-GlcN, N-Acetylglucosamine, reference compound]
[4]; Table XXIIIC
  effect on DTH (printed in the Dose column): N.E.

## O=S(=O)(O)N[C@H]1C(O)O[C@H](CO)[C@@H](O)[C@@H]1OS(=O)(=O)O (stereo partly drawn) [GlcN-2, 3S, D-Glucosamine-2,3-disulfate, reference compound]
[4]; s.c.
  effective dose range for inhibition ≧50% of control: narrow

## N[C@H]1C(O)O[C@H](CO)[C@@H](O)[C@@H]1OS(=O)(=O)O (stereo partly drawn) [GlcN-3S, D-Glucosamine-3-sulfate, reference compound]
[4]; Table XXIIIC
  effect on DTH (printed in the Dose column): N.E.

## O=C(O)C1=C[C@H](O)[C@@H](OS(=O)(=O)O)[C@H](O[C@H]2[C@H](O)[C@@H](NS(=O)(=O)O)C(O)O[C@@H]2COS(=O)(=O)O)O1 (stereo partly drawn) [H-9267, 2-O-sulfate-4-deoxy-4-en-iduronic acid-(α-1,4)-2-deoxy-2-N-sulfate-6-O-sulfateglucosamine]
[5]
  Bioassay of TNF Activity: Inconsistent
[4]; Table XXIIIA, inhibition of DTH, s.c.
  “R” value: 1.60 × 10^5 % × (μg/gm)^−1

## N[C@H]1C(O)O[C@H](CO)[C@@H](O[C@@H]2OC(C(=O)O)=C[C@H](O)[C@H]2OS(=O)(=O)O)[C@@H]1O (stereo partly drawn) [H-9142, 2-O-sulfate-4-deoxy-4-en-iduronic acid-(α-1,4)-2-deoxyglucosamine]
[5]
  Bioassay of TNF Activity: Inconsistent
[4]; [7]
  “R” value: 0 % × (μg/gm)^−1
[4]; Table XXIIIA
  effect on DTH (printed in the Dose column): N.E.

## CC(=O)N[C@H]1C(O)O[C@H](CO)[C@@H](O[C@@H]2OC(C(=O)O)=C[C@H](O)[C@H]2OS(=O)(=O)O)[C@@H]1O (stereo partly drawn) [H-8767, 2-O-sulfate-4-deoxy-4-en-iduronic acid-(α-1,4)-2-deoxy-2-N-acetylglucosamine]
[5]
  Bioassay of TNF Activity: Inconsistent
[4]; [7]
  “R” value: 0 % × (μg/gm)^−1
[4]; Table XXIIIA
  effect on DTH (printed in the Dose column): N.E.

## O=S(=O)(O)N[C@H]1C(O)O[C@H](COS(=O)(=O)O)[C@@H](O)[C@@H]1O (stereo partly drawn) [GlcN-2, 6S, D-Glucosamine-2,6-disulfate, reference compound]
[4]; s.c.
  effective dose range for inhibition ≧50% of control: narrow

## O=S(=O)(O)N[C@H]1C(O)O[C@H](CO)[C@@H](O)[C@@H]1O (stereo partly drawn) [GlcN-2S, D-Glucosamine-2-N-sulfate, reference compound]
[4]; Table XXIIIC, no effect, zero assigned
  “R” value: 0 % × (μg/gm)^−1
[4]; Table XXIIIC
  effect on DTH (printed in the Dose column): N.E.

## CC(=O)N[C@H]1C(O)O[C@H](COS(=O)(=O)O)[C@@H](O[C@@H]2OC(C(=O)O)=C[C@H](O)[C@H]2OS(=O)(=O)O)[C@@H]1O (stereo partly drawn) [H-9517, 2-O-sulfate-4-deoxy-4-en-iduronic acid-(α-1,4)-2-deoxy-2-N-acetyl-6-O-sulfateglucosamine]
[5]
  Bioassay of TNF Activity: Inconsistent^c

## CC(=O)NC1C(O)OC(COS(=O)(=O)O)C(OC2OC(C(=O)O)=CC(O)C2O)C1O (stereo not drawn) [H-8642, 4-deoxy-4-en-iduronic acid-(α-1,4)-2-deoxy-2-N-acetyl-6-O-sulfateglucosamine]
[5]
  Bioassay of TNF Activity: Inconsistent
[4]; [7]
  “R” value: 0 % × (μg/gm)^−1
[4]; Table XXIIIA
  effect on DTH (printed in the Dose column): N.E.

## O=C(O)C1=C[C@H](O)[C@@H](O)[C@H](O[C@H]2[C@H](O)[C@@H](NS(=O)(=O)O)C(O)O[C@@H]2CO)O1 (stereo partly drawn) [H-1145, 4-deoxy-4-en-iduronic acid-(α-1,4)-2-deoxy-2-N-sulfateglucosamine]
[4]; [7]
  “R” value: 0 % × (μg/gm)^−1
[4]; Table XXIIIA
  effect on DTH (printed in the Dose column): N.E.

## O=C(O)C1=C[C@H](O)[C@@H](O)[C@H](O[C@H]2[C@H](O)[C@@H](NS(=O)(=O)O)C(O)O[C@@H]2COS(=O)(=O)O)O1 (stereo partly drawn) [H-1020, 4-deoxy-4-en-iduronic acid-(α-1,4)-2-deoxy-2-N-sulfate-6-O-sulfateglucosamine]
[6]; 50 ng/rat s.c. (FIG. 39)
  effect on local LPS-induced inflammation relative to control: effective to suppress
[6]; 200 ng/rat s.c. (FIG. 39)
  effect on local LPS-induced inflammation relative to control: failed to provide a significant effect

## N[C@H]1C(O)O[C@H](COS(=O)(=O)O)[C@@H](O)[C@@H]1O (stereo partly drawn) [GlcN-6S, D-Glucosamine-6-sulfate, reference compound]
[4]; Table XXIIIC
  effect on DTH (printed in the Dose column): N.E.

## N[C@H]1C(O)O[C@H](COS(=O)(=O)O)[C@@H](O[C@@H]2OC(C(=O)O)=C[C@H](O)[C@H]2O)[C@@H]1O (stereo partly drawn) [H-9017, 4-Deoxy-4-en-iduronic acid-(α-1,4)-2-deoxy-6-O-sulfateglucosamine]
[5]
  Bioassay of TNF Activity: No effect
  “R” value: 0 % × (pg/ml)^−1
[4]; [7]
  “R” value: 0 % × (μg/gm)^−1
[4]; Table XXIIIA
  effect on DTH (printed in the Dose column): N.E.

## NC1C(O)OC(COS(=O)(=O)O)C(OC2OC(C(=O)O)=CC(O)C2OS(=O)(=O)O)C1O (stereo not drawn) [H-8892, 2-O-sulfate-4-deoxy-4-en-iduronic acid-(α-1,4)-2-deoxy-6-O-sulfateglucosamine]
[5]
  Bioassay of TNF Activity: No effect
  “R” value: 0 % × (pg/ml)^−1
[4]; [7]
  “R” value: 0 % × (μg/gm)^−1
[4]; Table XXIIIA
  effect on DTH (printed in the Dose column): N.E.
